Results: paper PMC4231793 (Biology of blood and marrow transplantation : journal of …, 2012)
Several values for one entry are separate records, joined by “and”; a condition that tells them apart may be missing. Identical values can stand only once. Like-named read-outs stand apart in the source and are kept apart here.

Key:
[1] = type: in vivo, human
[2] = Noncompartmental pharmacokinetic analysis of whole-blood sirolimus; type: in vivo, human; conditions: for concentration at 0 h: Co (trough concentration prior to oral dosing)
[3] = ref [10], cited from earlier work
[4] = cited from earlier work; for AUC0–24: ref [9],[14]; for Half-life: ref [9]; for t1/2: pediatric renal transplant patients, every-12-hour schedule, calcineurin inhibitor-free protocol, ref [8]
[5] = Population pharmacokinetic analysis; type: in vivo, human
CYP3A4 = conditions: compared with itraconazole, voriconazole, and posaconazole; ref [7],[23]; cited from earlier work
[6] = human, whole blood, oral, 2.5 mg/m^2/day
[7] = patients receiving concomitant fluconazole (i.v. or oral)
[8] = at 180 days, sirolimus, tacrolimus and methotrexate GVHD prophylaxis
[9] = of 63 subjects in the clinical study, sirolimus with tacrolimus
[10] = population estimate ± standard error

## CO[C@H]1C[C@@H]2CC[C@@H](C)[C@@](O)(O2)C(=O)C(=O)N2CCCC[C@H]2C(=O)O[C@H]([C@H](C)C[C@@H]2CC[C@@H](O)[C@H](OC)C2)CC(=O)[C@H](C)/C=C(\C)[C@@H](O)[C@@H](OC)C(=O)[C@H](C)C[C@H](C)/C=C/C=C/C=C/1C [sirolimus, Sirolimus]
[1]; above target range
  Share of sirolimus whole-blood concentrations >12 ng/mL: 12%
[1]; below target range
  Share of sirolimus whole-blood concentrations <3 ng/mL: 9%
[1]; target range 3–12 ng/mL, with therapeutic drug monitoring
  Share of sirolimus whole-blood (trough) concentrations within target range: 79%
[2]; human, whole blood, iv, 2.5 mg/m^2/day, C24 trough concentration, patients who developed grade III–IV aGVHD (n = 10), mean ± SD
  concentration at 24 h: 6.1 ± 2.9 ng/mL
[2]; [6]
  AUC(0-t): 401 ± 316 ng·h/mL
  CL/F: 3.17 mL/min/kg
  Tmax: 3.3 ± 1.6 h
  Vd/F: 5.78 ± 5.7 L/kg
[2]; human, whole blood, oral, 2.5 mg/m^2/day, C24 (trough concentration at 24 hours after oral dosing), i.v. Fluconazole (n = 16), mean ± SD (range)
  concentration at 24 h: 10 ng/mL
[2]; human, whole blood, oral, 2.5 mg/m^2/day, C24 trough concentration, patients with grade 0-II aGVHD (n = 22), mean ± SD
  concentration at 24 h: 9.4 ± 5.5 ng/mL
[2]; human, whole blood, oral, 2.5 mg/m^2/day, i.v. Fluconazole (n = 16), mean ± SD (range)
  concentration at 0 h: 8 ng/mL
[2]; human, whole blood, oral, 2.5 mg/m^2/day, Mean t1/2, patients age ≤12 years
  Half-life: 1310 min
[2]; human, whole blood, po, 2.5 mg/m^2/day, C24 (trough concentration at 24 hours after oral dosing), All (n = 33), mean ± SD (range)
  concentration at 24 h: 9.1 ± 5.3 ng/mL
[2]; human, whole blood, po, 2.5 mg/m^2/day, C24 (trough concentration at 24 hours after oral dosing), No Fluconazole (n = 11), mean ± SD (range)
  concentration at 24 h: 8 ng/mL
[2]; human, whole blood, po, 2.5 mg/m^2/day, C24 (trough concentration at 24 hours after oral dosing), Oral Fluconazole (n = 6), mean ± SD (range)
  concentration at 24 h: 8.6 ng/mL
[2]; human, whole blood, po, 2.5 mg/m^2/day, All (n = 33), mean ± SD (range)
  concentration at 0 h: 8 ± 4.6 ng/mL
[2]; human, whole blood, po, 2.5 mg/m^2/day, No Fluconazole (n = 11), mean ± SD (range)
  concentration at 0 h: 6.8 ng/mL
[2]; human, whole blood, po, 2.5 mg/m^2/day, Oral Fluconazole (n = 6), mean ± SD (range)
  concentration at 0 h: 11 ng/mL
[2]; n = 33, not significantly greater than 0 (P = .75)
  Difference between trough concentrations (C24 - C0)/C24, average: 10.3%
[2]; patients not receiving fluconazole
  Dose-normalized C24: 2.5 ± 1.7 ng/mL/mg and 2.51 ± 1.72 ng/mL/mg
[2]; [7]
  Dose-normalized C0: 3.9 ± 2.5 ng/mL/mg and 3.93 ± 2.5 ng/mL/mg
  Dose-normalized C24: 4.8 ± 3.3 ng/mL/mg and 4.8 ± 3.34 ng/mL/mg
[2]; patients who developed grade III–IV aGVHD (n = 10), mean ± SD
  C24 trough concentration: 6.11 ± 2.89 ng/mL
[2]; patients with grade 0-II aGVHD (n = 22), mean ± SD
  C24 trough concentration: 9.42 ± 5.52 ng/mL
[3]; [8]
  Cumulative incidence of grade III–IV aGVHD: 21%
  Cumulative incidence of grade II–IV aGVHD: 38%
[3]; [9]
  Subjects who developed thrombotic microangiopathy: 3 subjects
  Subjects who developed veno-occlusive disease of liver: 7 subjects
[4]; adult kidney transplant recipients
  AUC0–24: 173 ± 50 ng·h/mL
[4]; pediatric liver transplant recipients on sirolimus and tacrolimus
  Half-life: 21.2 ± 14.1 h
[4]; pediatric liver transplant recipients
  AUC0–24: 168.3 ± 86.5 ng·h/mL
[4]; 1 month posttransplantation
  t1/2: 9.7 h
[4]; 3 months posttransplantation
  t1/2: 10.8 h
[4]; pediatric small bowel transplant recipients
  AUC0–24: 177.4 ± 72.1 ng·h/mL
[4]; small bowel transplant recipients on sirolimus and tacrolimus
  Half-life: 19.3 ± 5.6 h
[5]; 37 patients, 333 concentrations, estimate ± standard error
  Clearance (Cl/F), population estimate: 6.66 ± 1.10 L/h
[5]; [6]
  CL/F: 2.83 mL/min/kg
  Vd: 26.9 ± 7.7 L
[5]; [10]
  Absorption rate constant (ka): 0.0535 ± 0.0104 h⁻¹
  Intercompartment clearance (Q): 4.62 ± 2.00 L/h
  Volume of distribution of peripheral compartment (Vp): 630 ± 171 L

## OC(Cn1cncn1)(Cn1cncn1)c1ccc(F)cc1F [Fluconazole]
CYP3A4
  In vitro CYP3A4 inhibition, rank among azoles: weakest in vitro inhibitor of CYP3A4
